Measurements taken from US20250115640A1, “NEUROPROTECTIVE POLYPEPTIDE COMPOUND AND APPLICATION THEREOF” (Innerse (Zhuhai) Pharmaceutical Co., Ltd., priority 2021, published 2025).
“And” between values parts separate entries of the source, which are not always exact repeats. Identical values can stand only once. “Also recorded” adds a separate entry of the source. Square brackets hold non-standard residues; d marks the D form. Ends that are not written are not given here. Peptide text beside a SMILES is read from it. βAla = NCCC(=O)O

What was measured:
[1] = test system: rat model of cerebral ischemia via middle cerebral artery occlusion (MCAO); assay: Rat MCAO cerebral ischemia model, TTC staining, cerebral infarct volume (Example 5); format: in vivo, SD rats; conditions: 3 mg/kg tail vein 1-2 h after ligation, TTC after 22-24 h
Method: In order to determine use of the synthetic peptides provided herein in a neurological disease, SD rats were used to prepare a rat model of cerebral ischemia via middle cerebral artery occlusion (MCAO). These rats were injected intravenously 1-2 hours after ischemia, and subjected for a behavioral observation and scoring after 22-24 hours. After the behavioral observation, the rats were euthanized and their brains were removed, cut to sections and stained with TTC for quantitative analysis, and the cerebral infarct volume % was calculated. The experimental SD rats were weighed and anesthetized with chloral hydrate. After anesthesia, the limbs of the rats were fixed, and the rats were placed in a supine position, connected to the small-animal monitor, and monitored for important physiological parameters such as body temperature, blood pressure and heart rate, etc. The rats were shaved at neck and disinfected with 75% alcohol cotton ball. […] The experimental rats were monitored with the small-animal monitor to evaluate if their physiological parameters were normal, and the rats were placed on a small-animal electric blanket to keep their body temperature until they waked up and placed in animal cages. […] The quantitative analysis of photos after TTC staining was performed using Image J software. […]

[2] = test system: rat model of cerebral ischemia via middle cerebral artery occlusion (MCAO); assay: Rat MCAO cerebral ischemia model, behavioral observation and scoring 0-5 (Example 5); format: in vivo, SD rats; conditions: 3 mg/kg tail vein, scoring 22-24 h after ligation, scale 0-5; for Behavioral score, mean value: group mean, 6 rats
Method: In order to determine use of the synthetic peptides provided herein in a neurological disease, SD rats were used to prepare a rat model of cerebral ischemia via middle cerebral artery occlusion (MCAO). These rats were injected intravenously 1-2 hours after ischemia, and subjected for a behavioral observation and scoring after 22-24 hours. After the behavioral observation, the rats were euthanized and their brains were removed, cut to sections and stained with TTC for quantitative analysis, and the cerebral infarct volume % was calculated. The experimental SD rats were weighed and anesthetized with chloral hydrate. After anesthesia, the limbs of the rats were fixed, and the rats were placed in a supine position, connected to the small-animal monitor, and monitored for important physiological parameters such as body temperature, blood pressure and heart rate, etc. The rats were shaved at neck and disinfected with 75% alcohol cotton ball. A middle incision of about 2 cm length was then made on the neck of the rats, and the submandibular gland of the rats was bluntly separated while avoiding damage to the gland. Then, the left common carotid artery (CCA) of the rats was bluntly separated, and the internal carotid artery (ICA) and external carotid artery (ECA) were carefully separated upward along the CCA. Any damage to vagus nerves was avoided during the separation. The CCA and ICA were clamped respectively with two artery clamps, and the distal end of the ECA was cut off. A silicone suture emboli was inserted into the ECA “port” to the ICA artery clamp. Then the artery clamp was quickly loosened and the tip of the suture emboli was pushed forward through the artery clamp quickly before clamping the ICA again. […] The experimental rats were monitored with the small-animal monitor to evaluate if their physiological parameters were normal, and the rats were placed on a small-animal electric blanket to keep their body temperature until they waked up and placed in animal cages. […]

[3] = test system: acute ischemic stroke due to large vessel occlusion; conditions: cited from earlier work
[4] = Body weight of MCAO model animals (Example 6); format: in vivo, Sprague-Dawley (SD) rats; conditions: individual animal
Method: • Animals measured: all the surviving experimental animals planned to be measured; • Measurement time: the body weight was measured at least twice during the adaptation period, once 24 hours before surgery for grouping, and once 24 hours after surgery.
Cerebral ischemia-reperfusion is an acute injury model, wherein the weight of experimental animals will drop dramatically after MCAO modeling. Thus, the weight of experimental animals is one of the most basic sensitive parameters to comprehensively reflect the health status of animals. In this experiment, the body weight of all the animals was monitored on the day before the surgery and on the first day after the surgery, and the changes of animal's body weight were observed and recorded.

[5] = General status observation and autopsy findings of MCAO model animals (Example 6); format: in vivo, Sprague-Dawley (SD) rats; conditions: 24 hours after administration; single animals
Method: After the adaptation period, animals weighing 240-290 g were selected for dividing into groups for modeling. 24 hours after administration, the animal numbered 2M006 in the S3 group was found dead. […] The data of the above animals was not included in the final statistical analysis. The data of the remaining animals in each group was included in the final statistical analysis. The number of animals included in the final statistical analysis was 8 animals for the model control group, 7 animals for S3 group, 9 animals for the t-PA group and 7 animals for S3+t-PA group.
• Animals observed: all the surviving animals planned to be observed; • Observation time: once a day, and the frequency can be increased if the animal starts to behave abnormal; • What were observed: including but not limited to general manifestations, behavioral status, eye, mouth, nose and mouth area, ear, hair and skin, feces, urine, genital organ and other toxic symptoms. A detailed description was required if there was any abnormality.

Row | Compound | Cerebral infarct volume (TTC quantification), mean value ([1]; group mean, 6 rats) | Cerebral infarct volume (TTC quantification), individual rats No. 1-6 ([1]; individual rat, listed as S1(NA1)) | Behavioral score, mean value [2] | Behavioral score, mean value ([2]; listed as NA1) | Behavioral score, individual rats No. 1-6 ([2]; individual rat) | Serious adverse events ([3]; human, in vivo) | Proportion of patients with an mRS score of 0-2 within 90 days ([3]; single dose of 2.6 mg/kg, maximum 270 mg, 549 patients, placebo 59.2%) | Body weight D 2, individual animals ([4]; after surgery and administration) | Body weight D 0, individual animals ([4]; before surgery (baseline)) | Death and autopsy findings in animals excluded from statistical analysis [5]
1 | YGRKKRRQRRRKLSSIESDV [Example S1] | 0.157 | 0.187 and 0.218 and 0.153 and 0.145 and 0.107 and 0.134 | 2.0 | 2.0±0.6 | 2 (4×) and 1 and 3 | occurred equally between groups | 61.4% | – | – | –
2 | CC[C@H](C)[C@H](NC(=O)[C@H](CO)NC(=O)[C@H](CO)NC(=O)[C@H](CC(C)C)NC(=O)[C@H](CCCCN)NC(=O)[C@H](Cc1c[nH]cn1)NC(=O)CCN)C(=O)N[C@@H](CCC(=O)O)C(=O)N[C@@H](CO)C(=O)N[C@@H](CC(=O)O)C(=O)N[C@H](C(=O)O)C(C)C [Example S3, beta-Ala-His-Lys-Leu-Ser-Ser-Ile-Glu-Ser-Asp-Val] (H-[βAla]HKLSSIESDV-OH) | – | – | – | – | – | – | – | 232.57 g and 249.67 g and 201.22 g and 228.45 g and 202.45 g and 195.33 g and 217.36 g | 281.72 g and 266.48 g and 253.24 g and 286.91 g and 258.64 g and 247.34 g and 273.73 g | found dead; also recorded: subarachnoid hemorrhage
